Columns and labels:
Test in all cases: drug sensitivity score (DSS3, normalised partial AUC of % inhibition dose-response) (DSS (score)); higher = more sensitive (stronger inhibition of viability); extreme values may be limits of the assay
Settings in all cases: 72 h; library: FO5A; assay format: 2D, 384-well, CellTiter-Glo
FMOC24 = test system: FMOC24 (patient-derived high-grade serous ovarian cancer cells)
Procedure, shortened: (§1)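 Early-passage (under 10) patient-derived ovarian cancer cells were dispensed onto 384-well flat clear-bottom plates pre-plated with compounds at five concentrations spanning a 10,000-fold range, then incubated 72 h at 37 °C, 5% CO2. Viability was read with CellTiter-Glo, and the data were processed in Breeze. The drug sensitivity score is a partial area under the percent-inhibition dose-response curve divided by the log of the upper asymptote, with higher values meaning greater sensitivity.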

FMOC06 = test system: FMOC06 (patient-derived mucinous ovarian cancer cells)
Procedure, shortened: as §1

FMOC22 = test system: FMOC22 (patient-derived mucinous ovarian cancer cells)
Procedure, shortened: as §1

FMOC14 = test system: FMOC14 (patient-derived high-grade serous ovarian cancer cells)
Procedure, shortened: as §1

FMOC02_3 = test system: FMOC02_3 (patient-derived low-grade serous ovarian cancer cells)
Procedure, shortened: as §1

FMOC02_2 = test system: FMOC02_2 (patient-derived low-grade serous ovarian cancer cells)
Procedure, shortened: as §1

FMOC03 = test system: FMOC03 (patient-derived mucinous ovarian cancer cells)
Procedure, shortened: as §1

FMOC09 = test system: FMOC09 (patient-derived high-grade serous ovarian cancer cells)
Procedure, shortened: as §1

FMOC25_2 = test system: FMOC25_2 (patient-derived low-grade serous ovarian cancer cells)
Procedure, shortened: as §1

Compound | drug sensitivity score (FMOC24) | drug sensitivity score (FMOC06) | drug sensitivity score (FMOC22) | drug sensitivity score (FMOC14) | drug sensitivity score (FMOC02_3) | drug sensitivity score (FMOC02_2) | drug sensitivity score (FMOC03) | drug sensitivity score (FMOC09) | drug sensitivity score (FMOC25_2)
C=C1C[C@@H]2CC[C@@]34C[C@H]5O[C@H]6[C@@H](O3)[C@H]3O[C@H](CC[C@@H]3O[C@H]6[C@H]5O4)CC(=O)C[C@@H]3[C@@H](OC)[C@@H](C[C@H](O)CN)O[C@H]3C[C@H]3O[C@@H](CC[C@@H]1O2)C[C@@H](C)C3=C [Eribulin] | 0.6 | 12.1 | 15.5 | 0 | 19.2 | 14.9 | 18 | 13.1 | 15.1
Nc1nc2cc(-c3ccc4ncc(C(=O)N5CCOCC5)n4c3)ccc2o1 [Serabelisib] | 0 | 3.5 | 2.1 | 0.1 | 7.2 | 6.6 | 3 | 1.3 | 6.7
Cc1sc2c(c1C)C(c1ccc(Cl)cc1)=N[C@@H](CC(=O)Nc1ccc(OCCOCCOCCOCCNc3cccc4c3C(=O)N(C3CCC(=O)NC3=O)C4=O)cc1)c1nnc(C)n1-2 (stereo partly specified) [ARV-825] | 6 | 14.9 | 3.6 | 11.4 | 13 | 7.1 | 4 | 8.3 | 17.1
CNC(=O)c1cccc(-c2ccc3c(N4CCOC[C@@H]4C)nc(N4CCOC[C@@H]4C)nc3n2)c1 [Vistusertib] | 8.35 | 14.8 | 9.7 | 12.6 | 21.6 | 20.9 | 13.1 | 8.9 | 18.2
CN(C)CC#Cc1ccc(OCCCc2sc(N3CCc4cccc(C(=O)Nc5nc6ccccc6s5)c4C3)nc2C(=O)O)c(F)c1 | 36.8 | 25.5 | 13.5 | 21.3 | 34 | 27.6 | 20.7 | 9.7 | 33.4
CCN(CC)CCNC(=O)c1c(C)[nH]c(/C=C2\C(=O)Nc3ccc(-c4csc(-c5ccccc5)n4)cc32)c1C [Amcasertib] | 8.9 | 0.5 | 2.7 | 0.1 | 0 | 1.6 | 1.2 | 0.3 | 0.1
CC(=O)c1cc2c(o1)C(=O)c1ccccc1C2=O [Napabucasin] | 17.5 | 14.7 | 18.5 | 18.2 | 17.9 | 18.3 | 18.2 | 19.2 | 15
CO[C@H]1CC[C@H](N2C(=O)CNc3ncc(-c4ccc(C(C)(C)O)nc4)nc32)CC1 [CC-223] | 2.4 | 5.1 | 3 | 3.5 | 9.2 | 8.6 | 4 | 3.5 | 8.6
C[C@H]1O[C@@H](O[C@H]2[C@@H](O)C[C@H](O[C@H]3[C@@H](O)C[C@H](O[C@H]4CC[C@@]5(C)[C@H](CC[C@@H]6[C@@H]5C[C@@H](O)[C@]5(C)[C@@H](C7=CC(=O)OC7)CC[C@]65O)C4)O[C@@H]3C)O[C@@H]2C)C[C@H](O)[C@@H]1O [Digoxin] | 17.1 | 10.7 | 9.7 | 10.3 | 14.4 | 11.1 | 9.6 | 14.3 | 18.3
Cc1sc2c(c1C)C(c1ccc(Cl)cc1)=N[C@@H](CC(=O)NCCCCNC(=O)COc1cccc3c1C(=O)N(C1CCC(=O)NC1=O)C3=O)c1nnc(C)n1-2 (stereo partly specified) [dBET1] | 0.2 | 12.9 | 3.8 | 8.9 | 8.6 | 8.8 | 4.5 | 4.5 | 0.3
CN[C@@H](C)C(=O)N[C@H](C(=O)N1CCC[C@H]1c1nc(C(=O)c2ccc(F)cc2)cs1)C1CCCCC1 [NVP-LCL161] | 32.1 | 10.9 | 0.6 | 7.1 | 1.9 | 1.7 | 3.9 | 0 | 9.8
COc1cc2c(cc1OC(C)C)[C@H](c1ccc(Cl)cc1)N(c1ccc(N(C)C[C@H]3CC[C@H](N4CCN(C)C(=O)C4)CC3)cc1)C(=O)C2 [NVP-CGM097] | 8.6 | 5.5 | 6.9 | 6.3 | 18 | 12.2 | 5.9 | 5.9 | 13
CCNC(=O)C[C@@H]1N=C(c2ccc(Cl)cc2)c2cc(OC)ccc2-n2c(C)nnc21 [Molibresib] | 5 | 3.6 | 3.1 | 1.7 | 10.2 | 6.9 | 3.4 | 2.1 | 5.6
CCOc1ccccc1-n1c(C(C)N2CCN(C(=O)COc3ccc(Cl)cc3)CC2)nc2ccccc2c1=O (stereo unspecified) [Erastin] | 0.1 | 8 | 0.2 | 14.6 | 3.9 | 0.3 | 6.1 | 2.2 | 4.7
